According to ChEMBL document CHEMBL3507680, “University of Dundee, Gates Library screen for HepG2 cell viability”:

assay: Human HepG2 cell viability assay in 384 well format; format: toxicity, cell-based; set-up: dose 125 nL, time 70.5 hour; cytotoxicity at 70.5 h: concentration not given beside the values; conditions: HepG2 cells, read-out: Inhibition

| Compound | cytotoxicity at 70.5 h [%] |
| --- | --- |
| CSCC(=O)N1C[C@@H](C)[C@](O)(C(C)C)C1 | -7.39 |
| Cc1ccc(NS(=O)(=O)c2cc3c(c(C(=O)O)c2)OCCO3)cc1F | -3.64 |
| CN(CC(=O)Nc1cc(C(C)(C)C)n[nH]1)S(C)(=O)=O | 12 |
| N#Cc1cccc(C(=O)N2CCc3ncc(Cn4cccn4)n3CC2)c1 | 8.26 |
| CN(Cc1nc(N2CCCC2)ncc1-c1ccncc1)C(=O)C(C)(C)C | -2.37 |
| O=S(=O)(NCC1(c2cccs2)CCOCC1)c1ccc2c(c1)OCCO2 | 12 |
| Cc1ccc(-c2cn[nH]c2C2CCCN(c3cc(N)ncn3)C2)cc1 (configuration not stated) | 5.4 |
| Cc1nc(C#N)c(N2CCC(c3nc(-c4ccc(F)cc4)no3)CC2)o1 | 28.5 |
| O=C(NCc1cccnc1)N[C@H]1CC[C@@]2(CCC(=O)N2CC2CC2)CC1 | 8.65 |
| Cc1ccc(C(=O)N2CC[C@H](Oc3cccnc3C)[C@@H](O)CC2)s1 | 4.2 |
| CCC(=O)NC1CCCN(Cc2ccc(-n3ccnc3)cc2)C1 (configuration not stated) | -4.83 |
| CC(O)CN1CCC(CN(C)Cc2cc(C#N)ccc2F)CC1 (configuration not stated) | -7.5 |
| CSc1ccc2cc(CN(C)CCc3cn[nH]c3)c(=O)[nH]c2c1 | 2.27 |
| O=C(Cn1cnc2sccc2c1=O)NCCc1nnc2ccccn12 | -11.3 |
| CN(C)C(=O)c1cccc(C[S+]([O-])CC(=O)NC2CCCC2)c1 (configuration not stated) | 5.53 |
| O=C(N[C@@H]1CN(CC2CC2)[C@@H]2CCCO[C@@H]21)c1cscn1 | -1.52 |
| CCCS(=O)(=O)N1CCN(c2ccnc(N3CCCC3)n2)CC1 | -7.03 |
| CC1c2ncc(Cn3cncn3)n2CCN1C(=O)Cc1cccs1 (configuration not stated) | -6.55 |
| OCCn1nccc1C1CCN(CCOc2ccccc2F)CC1 | -2.7 |
| O=C(CN1CCOCS1(=O)=O)NCc1ccccc1 | 25.7 |
| CCc1nc(CN2CCOC(CNc3cccnn3)C2)cs1 (configuration not stated) | 10.3 |
| CS(=O)(=O)N[C@@H]1CN(Cc2ccc3ccccc3c2)C[C@H]1O | -2.76 |
| CCOCc1nc2c(c(NCCNC(C)=O)n1)CCN(C(C)=O)CC2 | 16.6 |

| Compound | cytotoxicity at 70.5 h [%] |
| --- | --- |
| O=C(CC1CC1)NCc1cn2c(n1)CN(Cc1cccnc1)CC2 | -8.95 |
| CNc1nc(C(=O)N2CCN(c3ccc(Cl)c(Cl)c3)CC2)cs1 | -6.48 |
| CCCc1n[nH]c(C2CN(C(=O)CCn3ccccc3=O)CCO2)n1 (configuration not stated) | -2.27 |
| Cc1nc(C(=O)NC2CCN(CCOc3ccc(Br)cc3)CC2)cs1 | 1.52 |
| COc1cccc(-c2n[nH]cc2CNCC2CCS(=O)(=O)C2)c1 (configuration not stated) | 0.998 |
| CC(C)c1cc(NC(=O)CNC2CCc3nc(C(C)C)nn3C2)on1 (configuration not stated) | 4.46 |
| COCCN1CCN(C(=O)c2ccncc2F)Cc2cccnc21 | -12.3 |
| CC(Nc1cccc(CN2CCOC2=O)c1)C(=O)NC(N)=O (configuration not stated) | 32 |
| CN1CCN(CCCNCc2cc(O)c3cc(F)ccc3n2)CC1 | -4.99 |
| Cc1ccccc1C1CCCN(C(=O)c2c[nH]c(=O)c(Cl)c2)C1 (configuration not stated) | -12 |
| COCCNC(=O)NC(C)COc1ccc(F)cc1F (configuration not stated) | -0.107 |
| Cc1cc(CN(C)C(C(=O)O)c2ccc(C(C)(C)C)cc2)on1 (configuration not stated) | -5.92 |
| O=c1ccc2c([nH]1)CCC(NCc1ccc3c(c1)OCO3)C2 (configuration not stated) | -1.6 |
| OC(CN1CCN(CC(F)F)CC1)c1ccc(Br)cc1 (configuration not stated) | 1.14 |
| Cc1cnccc1N1CCN(c2nccc(CCC(F)(F)F)n2)CC1 | -9.06 |
| CC(=O)c1cnc(N(C)Cc2cnc3ccccc3n2)nc1C | -5.98 |
| O=C(N[C@@H]1CN(C2CCCC2)C[C@@H]2CCCO[C@@H]21)c1cnccn1 | -12.5 |
| O=C(NCc1ccc(Cl)s1)c1cc(CN2CCCC(O)C2)on1 (configuration not stated) | 19.4 |
| CC(=O)Nc1nc(CN2CCCC2Cn2cncn2)cs1 (configuration not stated) | 35.6 |
| O[C@H]1CCCC[C@@H]1N1CCN(CCCc2ccc3c(c2)OCO3)CC1 | -6.44 |
| N#CC1(C(=O)N2CCN(Cc3cscn3)CC2)CCCCC1 | -4.74 |
| CC(C(=O)N(C)C1CCCCC1)S(=O)(=O)Cc1csc(-c2cccs2)n1 (configuration not stated) | -7.18 |
| CCC(Nc1nc(C2CCCC2)nc2c1cnn2C)c1ccncc1 (configuration not stated) | 8.01 |

| Compound | cytotoxicity at 70.5 h [%] |
| --- | --- |
| COc1ccccc1C(C)CNC(=O)c1[nH]ncc1Br (configuration not stated) | 3.61 |
| Cc1nc(-c2ccc(C(=O)O)cc2)cc(C2CCN(C(C)C)C2)n1 (configuration not stated) | -9.52 |
| CCOc1ncccc1CNC(=O)NC(C)Cn1cccn1 (configuration not stated) | 25.9 |
| Cc1nc(CN2CCN(CCOc3ccc(C(C)C)c(C)c3)CC2)no1 | 8.91 |
| COc1ccc2cc(C(=O)NCCNc3ccc(C)nn3)[nH]c2c1 | -5.63 |
| CN1[C@@H](c2ccccc2)[C@@H](C(=O)NCc2ccncc2)C[C@@]1(C)C(=O)O | -22.3 |
| O=C(Nc1cc(-c2ccccc2)on1)N1CCN(CCO)CC1 | -6.53 |
| CO[C@H]1CN(C(=O)c2ccc3oc(C)cc3c2)C[C@@]12CCCO2 | -3.4 |
| Cc1cccc(CN2CCC(c3nccn3CC(N)=O)CC2)n1 | 22.7 |
| O=C(CCc1ncc(-c2ccc(F)cc2)o1)NCCN1CCOCC1 | -3.91 |
| Clc1ccc2nc(N3CCC(NCCCC4CCOC4)CC3)sc2c1 (configuration not stated) | 48.3 |
| Cc1ncc(CNC(=O)N(CCCO)C2CCc3ccccc32)s1 (configuration not stated) | -5.3 |
| CCN1CCN(C(C)CNC(=O)Nc2nnc(C(C)C)s2)CC1 (configuration not stated) | -12.4 |
| CS(=O)(=O)NCc1cc2n(n1)CCCN(Cc1cccc(C#N)c1)C2 | -9.28 |
| CNC(=O)c1cccc(CNC(C)c2cc(C)ccc2OC(F)F)c1 (configuration not stated) | -7.54 |
| COc1cc(C)nc(N2CCN(C(=O)c3cc(Cl)c[nH]3)CC2)n1 | -1.56 |
| CC(C)N1[C@H](Cn2cncn2)C[C@@H]2CNCC[C@@H]21 | 0.707 |
| CNC(=O)c1cccc(NC(=O)NC(C)CCc2cccn2C)c1C (configuration not stated) | 5.28 |
| CCOc1cc(C)nc(N2CCN(C(=O)c3cc[nH]n3)CC2)n1 | -3.5 |
| COCc1ccccc1C(=O)N1CCCC1Cn1nc(C)cc1C (configuration not stated) | 0.418 |
| CC(C)(C)c1nc(NS(=O)(=O)c2ccccc2F)no1 | -18.1 |
| Cc1nc2ccccc2nc1CN1CCOC(Cn2cccn2)C1 (configuration not stated) | -9.86 |
| Cc1cnn(CC2CCCN2C(=O)CCc2ccsc2)c1 (configuration not stated) | -5.3 |

| Compound | cytotoxicity at 70.5 h [%] |
| --- | --- |
| COCCn1ccc2ccc(NC(=O)NCc3noc(C)n3)cc21 | 2.1 |
| CC(=O)N1CCOCC2(C1)CN(S(C)(=O)=O)CCO2 (configuration not stated) | -9.18 |
| Cc1nc(COCc2nc3c(o2)CN(C(=O)c2ccoc2)C3)cs1 | -7.05 |
| O=C(c1ccc2c(c1)OCO2)N1C[C@H](OCC2CC2)[C@H]2COC[C@H]21 | -8.17 |
| CCC(C#N)NC(=O)c1cc(Br)c2c(c1)OCCO2 (configuration not stated) | -9.18 |
| CCCN1CCC(Nc2nc(C)ns2)CC1 | -8.37 |
| Cc1cn2c(n1)CCC(NC(=O)c1ccc(CS(C)(=O)=O)cc1)C2 (configuration not stated) | -1.89 |
| COC(=O)[C@H]1CCCCN1C(=O)c1cccc(-n2cccn2)c1 | -4.76 |
| CCOc1ccc(CC(=O)N2CCCC2c2cc(C)on2)cc1 (configuration not stated) | -3.15 |
| CCOc1cccc2c1OCC(C(=O)NS(=O)(=O)c1ccc(C)s1)=C2 | -4.35 |
| O=C(c1cnc(NCc2sccc2Br)c(Cl)c1)N1CCCCC1 | -9.35 |
| COc1ccc(CCC(=O)N2CCNCC2C(=O)N2CCOCC2)cc1 (configuration not stated) | -7.95 |
| CC1CCN(C(=O)c2sccc2-n2cnnn2)CC1 | -4.67 |
| O=C([C@H]1C[C@H]2OCC[C@H]2N(Cc2ccncc2)C1)N1CCCCO1 | -0.173 |
| N#Cc1ccc(OC2CCN(C(=O)c3ccccc3Cl)CC2)nc1 | -5.83 |
| CC(=O)N1CCC(c2nccnc2-c2ccc(C(=O)O)cc2)CC1 | 20 |
| Cc1ccc(N2CCO[C@@H]3CN(Cc4cccc(C)n4)CC[C@@H]3C2)nn1 | -3.06 |
| CN(C)Cc1cc(=O)n2c(n1)CN(C(=O)Cc1ccsc1)CCC2 | -12.5 |
| Cc1nc(C2CCCN2CCc2cccs2)no1 (configuration not stated) | -10.4 |
| Cc1nc(-c2noc3ccc(C(=O)NCCN4CCOCC4)cc23)cs1 | -8.24 |
| Nc1ncncc1-c1noc([C@@H]2CCCN2CC2CC2)n1 | 9.61 |
| O=C(NCCNS(=O)(=O)c1cc(F)cc(F)c1)c1ccoc1 | -8.89 |
| Cc1nnc(CN2CCN(C)C3(CCC(=O)N(CCO)CC3)C2)s1 (configuration not stated) | 3.3 |

| Compound | cytotoxicity at 70.5 h [%] |
| --- | --- |
| FC(F)(F)c1cc(C2CCN(c3cnccn3)CC2)n2ccnc2n1 | -5.4 |
| Cc1noc(C)c1S(=O)(=O)N1CCC(Oc2cccnn2)CC1 | -0.269 |
| COc1ccccc1N1CCN(C(=O)CCn2ccc(C)n2)CC1 | 23.2 |
| Cc1nc(C)n(CC2CCCN2CC(=O)NCCc2ccccc2)n1 (configuration not stated) | -4.21 |
| COCCc1noc(CN2CC(C)(c3ccccc3)CCC2=O)n1 (configuration not stated) | -9.17 |
| CNc1nc(CNC(=O)Nc2cccc(COCCOC(C)C)c2)cs1 | 2.29 |
| O=C(NCCc1noc(C2CCCO2)n1)c1cn2ccsc2n1 (configuration not stated) | -4.56 |
| COc1ccccc1CC(=O)N(C)Cc1cc(C)on1 | -3.86 |
| Cc1ccc(Cl)cc1NS(=O)(=O)c1cc(C(N)=O)n(C)c1 | -0.833 |
| O=C(CCCOc1ccc(F)cc1F)N1CCCC1Cn1cccn1 (configuration not stated) | 1.98 |
| CSc1nc2ccsc2c(=O)n1CC(=O)N(C)c1ccccc1 | -4.9 |
| Cc1ccccc1C(NC(=O)Cn1cc(C2CC2)nn1)C1CC1 (configuration not stated) | -3.63 |
| CN(CCN1CCOCC1)C(=O)CCCOCCc1ccccc1 | 13.1 |
| Cc1cc(C(=O)N2CCCC2)ccc1NS(C)(=O)=O | -7.84 |
| COc1cc2c(cc1CNC(=O)C(C)n1ccnc1C(C)C)CCC2 (configuration not stated) | -11.2 |
| Cc1ccc(-c2cc(C)nc(C3CCCN3S(C)(=O)=O)n2)cc1 (configuration not stated) | -8.04 |
| Cc1cnn(CC2CCCCN2CCCS(C)(=O)=O)c1 (configuration not stated) | -2.88 |
| COCCOc1ccccc1NC(C)C(=O)NC(=O)NC(C)(C)C (configuration not stated) | -15.9 |
| Cc1cc(NC(=O)COC(=O)c2ccc(F)cc2Br)n(C)n1 | -12.3 |
| CN1C[C@H](COCC2CC2)[C@H]2CCN(Cc3ccco3)CC[C@H]2C1=O | 7.68 |
